Experiment [1] deals with T1, Angiotensin I-converting enzyme (ACE, CD143) (Homo sapiens, UniProt P12821, S362W).
T1 construct: full-length somatic ACE, CHO cell lysate
As to the kind of experiment: fluorimetric hydrolysis assay (His-Leu product), […] substrate. Format: cell-based.

The target in experiment [2] is T2, Angiotensin I-converting enzyme (ACE, CD143) (Homo sapiens, UniProt P12821).
T2 construct: full-length somatic ACE, CHO cell lysate
The description is as above. Type of experiment: cell-based.

Molecules are shown by their SMILES. Residues, ends and D or L forms follow the SMILES beside them. *: point of attachment. Bz = O=C(c1ccccc1)*

Data on 1 compound can be found in paper PMC3913711, “A Novel Angiotensin I-Converting Enzyme Mutation (S333W) Impairs N-Domain Enzymatic Cleavage of the Anti-Fibrotic Peptide, AcSDKP” (PLoS ONE, 2014).

T1 sequence (P12821 30-1306 S362W): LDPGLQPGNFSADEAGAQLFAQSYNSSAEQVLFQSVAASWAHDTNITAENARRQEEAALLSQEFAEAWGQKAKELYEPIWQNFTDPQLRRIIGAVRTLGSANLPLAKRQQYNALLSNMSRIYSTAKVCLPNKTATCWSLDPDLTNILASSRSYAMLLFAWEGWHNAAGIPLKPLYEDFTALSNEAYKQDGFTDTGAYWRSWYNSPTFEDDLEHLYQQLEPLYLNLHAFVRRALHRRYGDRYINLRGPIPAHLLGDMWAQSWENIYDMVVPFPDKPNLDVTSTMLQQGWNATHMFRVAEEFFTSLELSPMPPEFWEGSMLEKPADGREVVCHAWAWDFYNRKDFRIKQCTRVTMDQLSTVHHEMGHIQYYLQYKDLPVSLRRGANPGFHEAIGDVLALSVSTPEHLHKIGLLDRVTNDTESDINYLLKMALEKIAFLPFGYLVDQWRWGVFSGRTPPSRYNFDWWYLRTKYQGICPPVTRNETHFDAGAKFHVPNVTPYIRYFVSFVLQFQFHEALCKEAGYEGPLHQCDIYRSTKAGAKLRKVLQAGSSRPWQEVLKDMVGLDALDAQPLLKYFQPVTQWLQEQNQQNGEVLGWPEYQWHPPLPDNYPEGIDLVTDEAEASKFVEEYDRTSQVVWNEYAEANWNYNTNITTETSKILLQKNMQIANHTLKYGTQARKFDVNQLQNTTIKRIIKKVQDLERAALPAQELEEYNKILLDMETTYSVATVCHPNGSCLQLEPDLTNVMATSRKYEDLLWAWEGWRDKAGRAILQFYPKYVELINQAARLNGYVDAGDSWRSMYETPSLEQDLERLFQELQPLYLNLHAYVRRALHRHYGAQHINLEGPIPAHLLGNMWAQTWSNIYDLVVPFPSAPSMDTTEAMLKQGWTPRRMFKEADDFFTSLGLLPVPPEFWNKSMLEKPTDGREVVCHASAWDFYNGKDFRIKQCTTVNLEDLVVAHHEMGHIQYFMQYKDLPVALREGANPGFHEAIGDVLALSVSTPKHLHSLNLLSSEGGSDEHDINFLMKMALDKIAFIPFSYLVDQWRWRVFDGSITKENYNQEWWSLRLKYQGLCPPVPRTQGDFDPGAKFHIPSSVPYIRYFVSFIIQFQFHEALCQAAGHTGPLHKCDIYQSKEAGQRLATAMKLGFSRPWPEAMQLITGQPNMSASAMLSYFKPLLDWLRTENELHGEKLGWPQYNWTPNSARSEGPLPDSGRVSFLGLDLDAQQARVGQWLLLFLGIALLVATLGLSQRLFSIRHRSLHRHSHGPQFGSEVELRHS
T2 sequence (P12821 30-1306): as the sequence (P12821 30-1306 S362W) above, with W333S counted along it

With `CC(C)C[C@H](NC(=O)[C@H](Cc1cnc[nH]1)NC(=O)CNC(=O)c1ccccc1)C(=O)O` [Hip-His-Leu] (Bz-Gly-His-Leu-OH), the “fluorimetric hydrolysis assay (His-Leu product), 5 mM substrate” value in experiment [1] is “stably expressing WT and mutant ACE was determined with substrates Hip-His-Leu and Z-Phe-His –Leu”; in experiment [2], “stably expressing WT and mutant ACE was determined with substrates Hip-His-Leu and Z-Phe-His –Leu”.
